Data set [1] can be described thus: Antioxidant activity assessed as DPPH radical scavenging activity at 10 ug/ml measured after 30 mins by UV-vis spectrophotometry relative to control. Type of data set: functional. Conditions: dose 10.0 µg/ml.
For data set [2], the system named is HT-29. In words: Cytotoxicity against human HT-29 cells assessed as reduction in cell viability measured after 24 hrs by MTT assay. Type of data set: functional, cell-based.
Data set [3] relates to SW-620. Nature of the data set: Cytotoxicity against human SW620 cells assessed as reduction in cell viability measured after 24 hrs by MTT assay. Type of data set: functional, cell-based.
Data set [4] relates to HT-29. Nature of the data set: Cytotoxicity against human HT-29 cells assessed as cell viability at 20 uM measured after 24 hrs by MTT assay relative to control. Type of data set: functional. Conditions: read-out: Activity.
The subject of data set [5] is SW-620. Nature of the data set: Cytotoxicity against human SW620 cells assessed as cell viability at 20 uM measured after 24 hrs by MTT assay relative to control. Conditions: read-out: Activity. Type of data set: functional.
Data set [6] in a line: Cytotoxicity against splenocytes (unknown origin) assessed as reduction in cell viability at 1.25 to 20 uM measured after 24 hrs by MTT assay. Type of data set: toxicity, cell-based. Conditions: splenocyte, dose 1.25-20 µM.
A short description of data set [7]: Antioxidant activity assessed as DPPH radical scavenging activity measured after 30 mins by UV-vis spectrophotometry. Type of data set: functional.
Data set [8] in a line: Antioxidant activity assessed as DPPH radical scavenging activity up to 10 ug/ml measured after 30 mins by UV-vis spectrophotometry. Conditions: dose <= 10.0 µg/ml. Type of data set: functional.

Converted amounts (≈) assume the structure as drawn. The source made the active and inactive calls. The calls are words filed in the database; no cut-off is given here.

In the case of `CN[C@H]1C([N+](=O)[O-])=C2C=CCC[C@]2(C)[C@H]2CC[C@]3(C)[C@@H]([C@H](C)CCCC(C)C)CC[C@H]3[C@H]12`, in data set [1], the Activity came out at 67.9%.
Still for that read-out and setting: in the case of `CN[C@H]1C([N+](=O)[O-])=C2C[C@@H](O)CC[C@]2(C)[C@H]2CC[C@]3(C)[C@@H]([C@H](C)CCCC(C)C)CC[C@H]3[C@H]12` it was 51.2%.
Still for that read-out and setting: in the case of `CCN(CC)[C@H]1C([N+](=O)[O-])=C2C=CCC[C@]2(C)[C@H]2CC[C@]3(C)[C@@H]([C@H](C)CCCC(C)C)CC[C@H]3[C@H]12` it was 64.8%.
Regarding `CC(=O)O[C@@H]1C=C2C([N+](=O)[O-])=C[C@H]3[C@@H]4CC[C@H]([C@H](C)CCCC(C)C)[C@@]4(C)CC[C@@H]3[C@@]2(C)CC1`, the Activity entry with HT-29 [2] is “Dose-dependent-effect”; in data set [1], 86.2%; in the data set on SW-620 [3], “Dose-dependent-effect”; in data set [6], “Non-toxic”. Besides, the IC50 with HT-29 [2] (HT-29, 24 h) stood at 11.5 µM; in the data set with SW-620 [3] (SW-620, 24 h), 10 µM; in data set [7] it was 2.78 µg/mL (≈ 5.89 µM). The viability at 20 µM turned out to be 10.8% in the data set on HT-29 [4] and 15.2% in the data set with SW-620 [5].
For the molecule `CN[C@H]1C([N+](=O)[O-])=C2C=C(Cl)CC[C@]2(C)[C@H]2CC[C@]3(C)[C@@H]([C@H](C)CCCC(C)C)CC[C@H]3[C@H]12`, the Activity in data set [1] came to 66.5%.
As to `CC(C)CCC[C@@H](C)[C@H]1CC[C@H]2[C@@H]3[C@@H](N(C)C)C([N+](=O)[O-])=C4C=CCC[C@]4(C)[C@H]3CC[C@]12C`, in data set [1], the Activity turned out to be 80.6%. Further, the IC50 in data set [7] stood at 3.08 µg/mL (≈ 6.74 µM).
For the molecule `O=C1O[C@H]([C@@H](O)CO)C(O)=C1O`, in data set [8], the result was Active.

These data come from ChEMBL document CHEMBL6134797, “Exploring 7β-amino-6-nitrocholestens as COVID-19 antivirals: in silico, synthesis, evaluation, and integration of artificial intelligence (AI) in drug design: assessing the cytotoxicity and antioxidant activity of 3β-acetoxynitrocholestane” (RSC Med Chem, 2024).
